Laboratory results from ChEMBL document CHEMBL5107941, “Design and optimisation of a small-molecule TLR2/4 antagonist for anti-tumour therapy” (RSC Med Chem, 2021).

How the values were obtained:
Toll-like receptor 2 = Toll-like receptor 2 (Homo sapiens, UniProt O60603); assay: Antagonist activity at human TLR2 in HEK-Blue hTLR2 cells assessed as inhibition of Pam3CSK4-induced receptor activation preincubated with Pam3CSK4 followed by compound addition and measured 24 hrs by Quanti-Blue based SEAP reporter gene assay; type: cell-based
Toll-like receptor 2, sequence (O60603 whole entry): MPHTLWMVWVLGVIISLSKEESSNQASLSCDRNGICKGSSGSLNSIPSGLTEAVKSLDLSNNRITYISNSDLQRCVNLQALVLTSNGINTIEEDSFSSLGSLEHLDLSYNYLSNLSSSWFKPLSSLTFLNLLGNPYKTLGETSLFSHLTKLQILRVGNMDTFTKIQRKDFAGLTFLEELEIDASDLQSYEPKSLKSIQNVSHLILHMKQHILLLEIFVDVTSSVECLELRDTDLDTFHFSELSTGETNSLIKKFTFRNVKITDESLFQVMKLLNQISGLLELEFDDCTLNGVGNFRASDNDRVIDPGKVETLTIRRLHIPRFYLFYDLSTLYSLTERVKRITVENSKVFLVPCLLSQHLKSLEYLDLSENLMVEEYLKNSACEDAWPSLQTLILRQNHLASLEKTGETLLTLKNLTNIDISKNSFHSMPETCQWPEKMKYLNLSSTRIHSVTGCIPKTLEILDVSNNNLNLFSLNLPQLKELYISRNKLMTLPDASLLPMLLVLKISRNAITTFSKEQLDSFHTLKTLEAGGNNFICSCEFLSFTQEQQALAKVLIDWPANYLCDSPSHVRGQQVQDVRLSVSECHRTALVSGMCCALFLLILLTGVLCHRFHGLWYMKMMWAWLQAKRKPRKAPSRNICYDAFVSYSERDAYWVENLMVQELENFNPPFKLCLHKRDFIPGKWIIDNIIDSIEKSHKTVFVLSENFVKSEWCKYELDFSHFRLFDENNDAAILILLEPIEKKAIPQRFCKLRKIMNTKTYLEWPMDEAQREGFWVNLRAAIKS

Toll-like receptor 4 = Toll-like receptor 4 (Homo sapiens, UniProt O00206); assay: Antagonist activity at human TLR4 in HEK-Blue hTLR4 cells assessed as inhibition of LPS-induced receptor activation preincubated with LPS followed by compound addition and measured 24 hrs by Quanti-Blue based SEAP reporter gene assay; type: cell-based
Toll-like receptor 4, sequence (O00206 whole entry): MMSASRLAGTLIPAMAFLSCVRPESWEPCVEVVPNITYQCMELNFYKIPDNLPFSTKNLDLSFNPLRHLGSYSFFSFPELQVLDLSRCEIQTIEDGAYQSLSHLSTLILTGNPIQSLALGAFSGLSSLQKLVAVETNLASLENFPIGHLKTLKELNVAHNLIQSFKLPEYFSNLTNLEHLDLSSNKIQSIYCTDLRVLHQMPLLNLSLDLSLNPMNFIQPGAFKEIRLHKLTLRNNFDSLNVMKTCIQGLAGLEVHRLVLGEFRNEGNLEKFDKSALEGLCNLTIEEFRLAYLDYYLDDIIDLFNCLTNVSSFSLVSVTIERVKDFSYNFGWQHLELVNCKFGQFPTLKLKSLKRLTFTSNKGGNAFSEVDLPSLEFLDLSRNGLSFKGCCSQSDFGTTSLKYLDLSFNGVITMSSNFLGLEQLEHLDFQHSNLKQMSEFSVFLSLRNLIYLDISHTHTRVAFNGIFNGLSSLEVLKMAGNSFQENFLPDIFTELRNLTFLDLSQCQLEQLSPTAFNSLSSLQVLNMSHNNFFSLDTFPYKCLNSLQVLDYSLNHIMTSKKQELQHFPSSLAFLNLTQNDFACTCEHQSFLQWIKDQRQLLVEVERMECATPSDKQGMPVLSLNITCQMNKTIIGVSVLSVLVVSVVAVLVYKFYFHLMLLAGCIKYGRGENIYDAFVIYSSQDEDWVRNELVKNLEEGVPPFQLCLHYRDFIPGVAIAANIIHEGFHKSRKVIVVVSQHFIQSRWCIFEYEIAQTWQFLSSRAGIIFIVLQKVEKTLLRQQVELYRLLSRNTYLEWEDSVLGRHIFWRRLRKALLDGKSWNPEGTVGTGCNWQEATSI

[1] = Cytotoxicity against HEK-Blue hTLR2 cells assessed as lethal dose measured after 24 hrs by CCK-8 assay; type: toxicity, cell-based; conditions: human, read-out: LD50
[2] = Cytotoxicity against HEK-Blue hTLR4 cells assessed as lethal dose measured after 24 hrs by CCK-8 assay; type: toxicity, cell-based; conditions: human, read-out: LD50
[3] = Cytotoxicity against mouse RAW264.7 cells assessed as lethal dose measured after 24 hrs by CCK-8 assay; type: toxicity, cell-based; conditions: read-out: LD50

Row | Structure (SMILES) | IC50 (Toll-like receptor 4) | IC50 (Toll-like receptor 2) | other results
1 | O=[N+]([O-])/C=C/c1cccc(OCc2ccc(Cl)cc2)c1 | 4.8 µM | 4.3 µM | 
2 | O=[N+]([O-])/C=C/c1cccc(OCc2ccc(F)cc2)c1 | 4.2 µM | 5.5 µM | 
3 | O=[N+]([O-])/C=C/c1cccc(OCc2ccccc2)c1 | 3.5 µM | 3.3 µM | 
4 | O=[N+]([O-])/C=C/c1ccc(Oc2ccccc2)cc1 | 6.5 µM |  | 
5 | O=[N+]([O-])/C=C/c1ccccc1Oc1ccccc1 |  | 4.4 µM | 
6 | O=[N+]([O-])/C=C/c1cccc(OCC2CCCCC2)c1 | 5.9 µM |  | 
7 | O=[N+]([O-])/C=C/c1cccc(OCc2ccccn2)c1 | 1.4 µM | 1.1 µM | 
8 | CCCCOc1cccc(/C=C/[N+](=O)[O-])c1 | 5.8 µM | 3.9 µM | 
9 | O=[N+]([O-])/C=C/c1cccc(OCC2CC2)c1 | 2.5 µM | 2.4 µM | 
10 | COc1ccc(COc2cccc(/C=C/[N+](=O)[O-])c2)cc1 | 5.6 µM | 4.4 µM | 
11 | CCCCOC(=O)c1ccc(COc2cccc(/C=C/[N+](=O)[O-])c2)nc1 | 3.7 µM | 3.1 µM | 
12 | O=[N+]([O-])/C=C/c1cccc(Nc2ccccn2)c1 | 0.46 µM |  | CC50 at 24 h [1]: 28 µM; CC50 at 24 h [2]: 28 µM; CC50 at 24 h [3]: 28 µM
13 | O=[N+]([O-])/C=C/c1cccc(OCc2ccncc2)c1 | 3.9 µM | 3.2 µM | 
14 | C/C(=C\[N+](=O)[O-])c1cccc(Oc2ccccc2)c1 | 6.3 µM |  | 
15 | O=[N+]([O-])/C=C/c1cccc(OCc2ccc3ccccc3c2)c1 | 4.4 µM | 5 µM | 

The next lines start with results.

Row | IC50 (Toll-like receptor 4) | Structure (SMILES) | IC50 (Toll-like receptor 2) | other results
16 | 9.2 µM | CCOC(=O)c1ccc(COc2cccc(/C=C/[N+](=O)[O-])c2)nc1 | 12.3 µM | 
17 | 3.6 µM | O=C(Nc1ccccn1)c1cccc(/C=C/[N+](=O)[O-])c1 |  | 
18 | 2.8 µM | O=[N+]([O-])/C=C/c1cccc(Nc2ncccn2)c1 | 2.6 µM | 
19 | 1 µM | O=[N+]([O-])/C=C/c1cccc(Oc2ccccn2)c1 | 1.2 µM | 
20 | 6.2 µM | O=[N+]([O-])/C=C/c1cccc(Oc2ncccn2)c1 |  | 
21 | 3.7 µM | CN(C)c1ccc(/C=C/[N+](=O)[O-])cc1Nc1ccccn1 |  | 
22 | 0.28 µM | O=[N+]([O-])/C=C/c1cccc(-c2ccccn2)c1 |  | 
23 | 5.9 µM | CCCOC(=O)c1ccc(COc2cccc(/C=C/[N+](=O)[O-])c2)nc1 |  | 
24 | 2.4 µM | O=[N+]([O-])/C=C/c1cccc(Oc2nccs2)c1 |  | 
25 | 3.1 µM | O=[N+]([O-])/C=C/c1cccc(Nc2cccnc2)c1 |  | 
26 | 4.3 µM | O=[N+]([O-])/C=C/c1cccc(Oc2ccccc2)c1 | 3.4 µM | 
